Laboratory results as given in ChEMBL document CHEMBL3885881, “DrugMatrix”.

Species on record: Rattus norvegicus
Experiment: DrugMatrix - Regimen: Daily Repeat
Type: toxicity, organism-based, Sprague-Dawley
Parameters: regimen Daily Repeat, gender Male, age 6-8 weeks
Conditions: in vivo, po, route oral GAVAGE, […]; for ABSOLUTE BASOPHIL / ABSOLUTE EOSINOPHIL / ABSOLUTE LYMPHOCYTE / ABSOLUTE MONOCYTE / ABSOLUTE SEGMENTED NEUTROPHIL / BASOPHIL / EOSINOPHIL / ERYTHROCYTE COUNT / HEMATOCRIT / HEMOGLOBIN / LEUKOCYTE COUNT / LYMPHOCYTE / MEAN CORPUSCULAR HEMOGLOBIN / MEAN CORPUSCULAR HEMOGLOBIN CONCENTRATION / MEAN CORPUSCULAR VOLUME / MONOCYTE / NEUTROPHIL / NUCLEATED RED BLOOD CELLS / PLATELET COUNT: tissue Blood; for ALANINE AMINOTRANSFERASE / ALBUMIN / ALKALINE PHOSPHATASE / ASPARTATE AMINOTRANSFERASE / BLOOD UREA NITROGEN / CARBON DIOXIDE / CHLORIDE / CHOLESTEROL / CREATINE PHOSPHOKINASE / CREATININE / GLUCOSE / LACTATE DEHYDROGENASE / LIPASE / PHOSPHORUS / POTASSIUM / SODIUM / TOTAL BILIRUBIN / TOTAL PROTEIN / URIC ACID: tissue Plasma
[1] = 10 mg/kg, 120 h, dose level Low, time 5 day
[2] = 1100 mg/kg, 72 h, dose level High, time 3 day
[3] = 1100 mg/kg, 120 h, dose level High, time 5 day

SMILES: COCCOC(=O)C1=C(C)NC(C)=C(C(=O)OC(C)C)C1c1cccc([N+](=O)[O-])c1 (centres undefined) [NIMODIPINE]
- ABSOLUTE BASOPHIL [1]: 0 CELLS/uL
- ABSOLUTE EOSINOPHIL [1]: 0 CELLS/uL
- ABSOLUTE LYMPHOCYTE [1]: 13499.67 CELLS/uL
- ABSOLUTE MONOCYTE [1]: 96.33 CELLS/uL
- ABSOLUTE SEGMENTED NEUTROPHIL [1]: 1037.33 CELLS/uL
- BASOPHIL [1]: 0%
- EOSINOPHIL [1]: 0%
- ERYTHROCYTE COUNT [1]: 5.7 x10E6/uL
- HEMATOCRIT [1]: 36.23%
- HEMOGLOBIN [1]: 13.9 G/DL
- LEUKOCYTE COUNT [1]: 14.63 x10E3/uL
- LYMPHOCYTE [1]: 92.67%
- MEAN CORPUSCULAR HEMOGLOBIN [1]: 24.4 pg
- MEAN CORPUSCULAR HEMOGLOBIN CONCENTRATION [1]: 38.37 G/DL
- MEAN CORPUSCULAR VOLUME [1]: 63.63 fL
- MONOCYTE [1]: 0.67%
- NEUTROPHIL [1]: 6.67%
- NUCLEATED RED BLOOD CELLS [1]: 0 /100WBC
- PLATELET COUNT [1]: 940 x10E3/uL
- ALANINE AMINOTRANSFERASE [1]: 59.33 u/L
- ALBUMIN [1]: 4.3 G/DL
- ALKALINE PHOSPHATASE [1]: 389.33 u/L
- ASPARTATE AMINOTRANSFERASE [1]: 102.33 u/L
- BLOOD UREA NITROGEN [1]: 15 mg/dL
- CARBON DIOXIDE [1]: 31.67 mmol/L
- CHLORIDE [1]: 100 MEQ/L
- CHOLESTEROL [1]: 63 mg/dL
- CREATINE PHOSPHOKINASE [1]: 716.33 u/L
- CREATININE [1]: 0.16 mg/dL
- GLUCOSE [1]: 145.33 mg/dL
- LACTATE DEHYDROGENASE [1]: 194.33 u/L
- LIPASE [1]: 9.33 u/L
- PHOSPHORUS [1]: 10.4 mg/dL
- POTASSIUM [1]: 5.95 MEQ/L
- SODIUM [1]: 143.1 MEQ/L
- TOTAL BILIRUBIN [1]: 0.23 mg/dL
- TOTAL PROTEIN [1]: 6.2 G/DL
- URIC ACID [1]: 0.83 mg/dL
- ABSOLUTE BASOPHIL [2]: 0 CELLS/uL
- ABSOLUTE EOSINOPHIL [2]: 0 CELLS/uL
- ABSOLUTE LYMPHOCYTE [2]: 8640.33 CELLS/uL
- ABSOLUTE MONOCYTE [2]: 0 CELLS/uL
- ABSOLUTE SEGMENTED NEUTROPHIL [2]: 859.67 CELLS/uL
- BASOPHIL [2]: 0%
- EOSINOPHIL [2]: 0%
- ERYTHROCYTE COUNT [2]: 6.21 x10E6/uL
- HEMATOCRIT [2]: 37.2%
- HEMOGLOBIN [2]: 14.77 G/DL
- LEUKOCYTE COUNT [2]: 9.5 x10E3/uL
- LYMPHOCYTE [2]: 91%
- MEAN CORPUSCULAR HEMOGLOBIN [2]: 23.77 pg
- MEAN CORPUSCULAR HEMOGLOBIN CONCENTRATION [2]: 39.7 G/DL
- MEAN CORPUSCULAR VOLUME [2]: 59.87 fL
- MONOCYTE [2]: 0%
- NEUTROPHIL [2]: 9%
- NUCLEATED RED BLOOD CELLS [2]: 0.33 /100WBC
- PLATELET COUNT [2]: 1341.67 x10E3/uL
- ALANINE AMINOTRANSFERASE [2]: 90 u/L
- ALBUMIN [2]: 4.17 G/DL
- ALKALINE PHOSPHATASE [2]: 427.67 u/L
- ASPARTATE AMINOTRANSFERASE [2]: 82.67 u/L
- BLOOD UREA NITROGEN [2]: 13 mg/dL
- CARBON DIOXIDE [2]: 27.33 mmol/L
- CHLORIDE [2]: 97.67 MEQ/L
- CHOLESTEROL [2]: 77.67 mg/dL
- CREATINE PHOSPHOKINASE [2]: 248.33 u/L
- CREATININE [2]: 0.17 mg/dL
- GLUCOSE [2]: 211.67 mg/dL
- LACTATE DEHYDROGENASE [2]: 205.33 u/L
- LIPASE [2]: 11.33 u/L
- PHOSPHORUS [2]: 10.23 mg/dL
- POTASSIUM [2]: 4.32 MEQ/L
- SODIUM [2]: 139.8 MEQ/L
- TOTAL BILIRUBIN [2]: 0.4 mg/dL
- TOTAL PROTEIN [2]: 6.33 G/DL
- URIC ACID [2]: 0.47 mg/dL
- ABSOLUTE BASOPHIL [3]: 0 CELLS/uL
- ABSOLUTE EOSINOPHIL [3]: 0 CELLS/uL
- ABSOLUTE LYMPHOCYTE [3]: 5312.67 CELLS/uL
- ABSOLUTE MONOCYTE [3]: 159.33 CELLS/uL
- ABSOLUTE SEGMENTED NEUTROPHIL [3]: 1728 CELLS/uL
- BASOPHIL [3]: 0%
- EOSINOPHIL [3]: 0%
- ERYTHROCYTE COUNT [3]: 7.19 x10E6/uL
- HEMATOCRIT [3]: 42.83%
- HEMOGLOBIN [3]: 16.87 G/DL
- LEUKOCYTE COUNT [3]: 7.2 x10E3/uL
- LYMPHOCYTE [3]: 75.67%
- MEAN CORPUSCULAR HEMOGLOBIN [3]: 23.43 pg
- MEAN CORPUSCULAR HEMOGLOBIN CONCENTRATION [3]: 39.33 G/DL
- MEAN CORPUSCULAR VOLUME [3]: 59.63 fL
- MONOCYTE [3]: 2%
- NEUTROPHIL [3]: 22.33%
- NUCLEATED RED BLOOD CELLS [3]: 0 /100WBC
- PLATELET COUNT [3]: 1410 x10E3/uL
- ALANINE AMINOTRANSFERASE [3]: 65.33 u/L
- ALBUMIN [3]: 4 G/DL
- ALKALINE PHOSPHATASE [3]: 160 u/L
- ASPARTATE AMINOTRANSFERASE [3]: 89.33 u/L
- BLOOD UREA NITROGEN [3]: 43.67 mg/dL
- CARBON DIOXIDE [3]: 34.33 mmol/L
- CHLORIDE [3]: 84 MEQ/L
- CHOLESTEROL [3]: 75 mg/dL
- CREATINE PHOSPHOKINASE [3]: 283.67 u/L
- CREATININE [3]: 0.22 mg/dL
- GLUCOSE [3]: 198.67 mg/dL
- LACTATE DEHYDROGENASE [3]: 180 u/L
- LIPASE [3]: 12.33 u/L
- PHOSPHORUS [3]: 9.97 mg/dL
- POTASSIUM [3]: 3.85 MEQ/L
- SODIUM [3]: 133.83 MEQ/L
- TOTAL BILIRUBIN [3]: 0.3 mg/dL
- TOTAL PROTEIN [3]: 6.2 G/DL
- URIC ACID [3]: 0.3 mg/dL
